In paper PMC3990583 (PLoS ONE, 2014):

What was measured:
Clks = test: In vitro kinase assays (Millipore), CX-4945 compared with TG-003 on Clks; assay type: biochemical, human; details: Figure S6
Method: All experiments were performed twice.

293T cells [1] = test: Quantitative real-time PCR of CK2 α′ mRNA levels in 293T cells; assay type: cell-based, human; details: qPCR, primers to exon 7, Figure S1
Method: (§1) To analyze the effect of compounds on pre-mRNA splicing, 293T, Huh7, and HepG2 cells were treated with the indicated concentrations. Total RNAs were extracted using the TRIzol reagent (Invitrogen) followed by cDNA synthesis using the Omniscript RT kit (Qiagen) and an oligo-dT primer. PCR was performed at 95°C for 30 s, 55°C for 30 s, and 72°C for 1 min for 35 cycles using GoTaq Green Master Mix (Promega). Quantitative real-time PCR analysis was performed using the BioRad IQ SYBR Green Supermix. All gene expression experiments were performed independently at least twice.
Figure S1. […] Quantitative real-time PCR was performed with total RNA from DMSO- and CX-4945-treated 293T cells. The amount of normal CK2 α’ mRNA was measured using primers corresponding to exon 6, and the total amount of normal CK2 α’ mRNA and the smaller-sized CK2 α’ mRNA was measured using primers corresponding to exon 7. The values for DMSO-treated samples were set to 1, and the relative amounts were calculated. The average and SD values were determined from three independent experiments.

recombinant human Clk3 = recombinant human Clk3 (Homo sapiens, UniProt P49761); test: In vitro kinase assay (Life Technologies), Clk3; assay type: biochemical
recombinant human Clk3, sequence (P49761 whole entry): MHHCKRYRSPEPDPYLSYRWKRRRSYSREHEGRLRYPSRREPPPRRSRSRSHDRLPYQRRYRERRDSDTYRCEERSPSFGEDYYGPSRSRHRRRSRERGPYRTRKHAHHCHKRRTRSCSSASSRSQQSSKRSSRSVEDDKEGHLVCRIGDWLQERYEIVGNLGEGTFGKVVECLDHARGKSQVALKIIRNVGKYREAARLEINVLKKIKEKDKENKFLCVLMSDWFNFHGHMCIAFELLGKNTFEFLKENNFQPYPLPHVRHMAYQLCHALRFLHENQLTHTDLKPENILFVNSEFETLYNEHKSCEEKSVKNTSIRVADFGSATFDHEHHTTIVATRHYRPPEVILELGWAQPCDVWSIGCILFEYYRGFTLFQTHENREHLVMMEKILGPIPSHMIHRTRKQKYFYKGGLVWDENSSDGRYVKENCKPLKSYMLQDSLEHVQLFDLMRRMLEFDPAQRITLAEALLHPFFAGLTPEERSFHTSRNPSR

recombinant human SRPK1 = recombinant human SRPK1 (Homo sapiens, UniProt Q96SB4); test: In vitro kinase assay (Life Technologies), SRPK1; assay type: biochemical; details: two independent assays
recombinant human SRPK1, sequence (Q96SB4 whole entry): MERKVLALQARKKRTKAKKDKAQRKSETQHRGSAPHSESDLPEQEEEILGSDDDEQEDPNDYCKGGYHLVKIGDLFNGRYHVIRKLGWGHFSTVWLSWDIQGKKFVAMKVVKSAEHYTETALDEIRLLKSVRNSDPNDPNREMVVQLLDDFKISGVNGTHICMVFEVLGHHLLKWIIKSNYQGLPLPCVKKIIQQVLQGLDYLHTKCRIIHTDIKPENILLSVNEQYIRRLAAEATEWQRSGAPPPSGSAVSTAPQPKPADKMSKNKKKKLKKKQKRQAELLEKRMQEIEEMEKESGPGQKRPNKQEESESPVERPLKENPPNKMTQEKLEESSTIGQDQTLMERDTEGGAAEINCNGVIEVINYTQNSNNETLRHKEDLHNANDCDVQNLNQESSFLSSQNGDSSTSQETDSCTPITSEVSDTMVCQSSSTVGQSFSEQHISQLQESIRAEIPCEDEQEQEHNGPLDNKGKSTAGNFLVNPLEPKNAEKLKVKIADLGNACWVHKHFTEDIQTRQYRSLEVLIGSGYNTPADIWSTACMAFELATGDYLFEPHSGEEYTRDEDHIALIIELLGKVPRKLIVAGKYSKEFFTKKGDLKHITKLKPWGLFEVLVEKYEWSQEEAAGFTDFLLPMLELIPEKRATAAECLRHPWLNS

293T cells [2] = test: Affymetrix exon array, transcriptome-wide splicing in 293T cells; assay type: cell-based, human; details: 10 µM, 12 hours
Method: The fragmented and end-labeled single-stranded cDNAs were prepared and hybridized to Affymetrix-GeneChip Human Exon 1.0 ST arrays (Affymetrix). Affymetrix Expression Console Software was used to perform quality assessment. Affymetrix exon array data was analyzed using GeneSpring 12.6 inclusive of GX (Agilent Technologies). Three independent experimental samples were examined.
Transcriptome analysis with the Affymetrix GeneChip Human Exon 1.0 ST Array, which contains multiple probes per exon, allowed us to search for variations at the exon level. […] Further analysis characterized the 8,968 affected exons into 1,555 included exons and 7,413 skipped exons. To validate this observation, we randomly chose 15 exons from those affected by more than 2-fold and examined alterations in alternative splicing using RT-PCR of the same total RNAs used in the exon array experiments. Representative mRNAs containing selected exons are illustrated by heat maps, and all of the selected exons were denoted by black underlines (Figure 2A). […] Different exons are commonly affected differentially by a stimulus or splicing inhibition, depending on cis-acting elements on exon/intron and activities of trans-acting factors.
(§2) The cDNA was synthesized and further processed for exon array as described in Materials and Methods. All experiments were performed three times, and representative heat maps of selected transcripts from the exon arrays are shown. Selected exons for each mRNA are highlighted with black underlines. (B) RT-PCR analysis was performed for the ELL2, SPAST, QRSL1, PRPSAP2, CPEB1, USP38, TRIP4, CTDSPL2, WDFY1 and ZCCHC2 genes with the same RNA used for the exon arrays. The exonic structure of the RT-PCR products and the exonic location of PCR primers are indicated with tandem rectangles and arrowheads, respectively. PCR products were quantified using ImageJ software, and the ratios of skipped product (skipped/total PCR product) were calculated.

[3] = tested on: SR protein phosphorylation; test: Western blot of phosphorylated SR proteins (mAb 1H4) in 293T cells; assay type: cell-based, human; details: for alteration of SR protein phosphorylation: 100 µM, 12 hour, Figure S5
SRPKs (SRPK1 and SRPK2) = test: In vitro kinase assays, SRPK family as a whole; assay type: biochemical, human
[4] = tested on: CK2-mediated phosphorylation of AKT at S129; test: Western blot of AKT(S129) phosphorylation (CK2-specific site) in 293T cells; assay type: cell-based, human; details: 12 hours
293T cells [5] = test: RT-PCR analysis of alternative pre-mRNA splicing in 293T cells; assay type: cell-based, human
Method: Cells (293T, Huh7, and HepG2) were cultured in Dulbecco's modified Eagle's medium (DMEM) containing 10% fetal bovine serum (FBS; Hyclone) supplemented with 1% penicillin and streptomycin. […] The 293T cells were transfected in 6-well plates with siRNAs (Bioneer) at a final concentration of 100 nM using Lipofectamine RNAiMax (Invitrogen) according to the manufacturer's instructions.
as §1, §2
Total levels of AKT were also monitored as a control. hnRNP A1 was used as a loading control. (B) Alternatively spliced CK2 α′, ELL2, CPEB1, PRPSAP2, and QRSL1 mRNAs were examined by RT-PCR. PCR products of normal and alternatively spliced isoforms are denoted by black arrowheads. An extra PCR product of the QRSL1 gene appeared in TBB-treated samples and is denoted by an asterisk. All experiments were performed twice, and representative data for each are presented.

recombinant human SRPK2 = recombinant human SRPK2 (Homo sapiens, UniProt P78362); test: In vitro kinase assay (Life Technologies), SRPK2; assay type: biochemical; details: two independent assays
recombinant human SRPK2, sequence (P78362 whole entry): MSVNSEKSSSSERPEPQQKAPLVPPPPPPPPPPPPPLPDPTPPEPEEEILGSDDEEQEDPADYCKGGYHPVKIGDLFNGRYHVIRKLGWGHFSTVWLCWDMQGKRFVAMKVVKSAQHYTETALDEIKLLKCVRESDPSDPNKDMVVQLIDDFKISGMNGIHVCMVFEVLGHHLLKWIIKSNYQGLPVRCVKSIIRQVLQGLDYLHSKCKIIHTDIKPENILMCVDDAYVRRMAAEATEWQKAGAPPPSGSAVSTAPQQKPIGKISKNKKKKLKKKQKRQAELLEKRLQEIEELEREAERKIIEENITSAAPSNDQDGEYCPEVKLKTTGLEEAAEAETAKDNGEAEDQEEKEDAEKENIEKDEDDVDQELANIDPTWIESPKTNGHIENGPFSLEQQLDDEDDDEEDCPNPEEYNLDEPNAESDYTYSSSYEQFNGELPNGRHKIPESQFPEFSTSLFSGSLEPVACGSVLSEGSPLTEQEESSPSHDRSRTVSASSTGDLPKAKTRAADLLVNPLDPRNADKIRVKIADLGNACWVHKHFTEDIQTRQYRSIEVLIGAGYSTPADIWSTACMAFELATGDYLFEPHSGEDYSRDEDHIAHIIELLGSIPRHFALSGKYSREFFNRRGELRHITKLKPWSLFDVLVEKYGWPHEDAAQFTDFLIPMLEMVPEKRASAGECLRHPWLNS

[6] = molecular target: Clks (Clk1, Clk2, and Clk3); test: In vitro kinase assays, Clk family as a whole; assay type: biochemical, human; details: range over Clk1, Clk2, Clk3; read-out: IC50 on Clks (all three Clks, Clk1-3)
HepG2 cells = test: Quantitative real-time PCR of gluconeogenic genes in HepG2 cells; details: 12 hours
Huh7 cells = test: RT-PCR of Bcl-X and RON alternative splicing in Huh7 cells; assay type: cell-based, human; details: 12 hours
Method: as §1

[7] = tested on: Clk1 and Clk4 over Clk2 and Clk3; design: method as in PMID 15010457; details: cited from earlier work

For `O=C(O)c1ccc2c(c1)nc(Nc1cccc(Cl)c1)c1ccncc12` [CX-4945], the “overall efficacies on Clks compared with TG-003” value (Clks) was “much stronger than those of TG-003”, the “total amount of normal CK2 α′ and smaller-sized CK2 α′ mRNA” value (293T cells [1]) was “not altered” and the IC50 (recombinant human Clk3) was 0.09 µM. The IC50 (recombinant human SRPK1) was 1.23 µM, the “included exons among the affected exons” value (293T cells [2]) was 1,555 exons and the “skipped exons among the affected exons” value (293T cells [2]) was 7,413 exons. For the same molecule, the “genes affected at the whole-transcript level” value (293T cells [2]; 82 out of 18,673 genes) was 0.44%, the “regulatory efficacy on SR protein phosphorylation compared with TG-003” value ([3]; 1 µM CX-4945 versus 10 µM TG-003, 1 hour) was “stronger than that of TG-003” and the “levels of phosphorylated SRSF4, SRSF6, SRSF5, and SRSF1” value ([3]; 1 and 10 µM, 1 hour) was “considerably decreased”. The “phosphorylation of SRSF3” value ([3]; 1 and 10 µM, 1 hour) was “not affected”, the “upper band of phospho-SRSF6 (hyperphosphorylated SRSF6)” value ([3]; 1 and 10 µM, 1 hour) was “dramatically increased” and the “dose dependence of effect on phosphorylation of SR proteins” value ([3]; 1 versus 10 µM, 1 hour) was “dose-dependent”. For the same molecule, the IC50 (SRPKs (SRPK1 and SRPK2)) was over 1 µM, the “CK2-mediated phosphorylation of AKT at S129” value (“CK2-mediated phosphorylation” below) ([4]; 10 µM) was “efficiently blocked” and the “amount of PCR product corresponding to normal CK2 α′” value (293T cells [5]; 10 µM, 12 hours, compared with DMSO) was “reduced”. For the same molecule, the “splicing of Clk1/Sty pre-mRNA” value (293T cells [5]; 12 hours, 293T) was “changes in splicing”, the “time of appearance of new product CK2 α′△ (exon6-skipped)” value (293T cells [5]; time course following exposure, 293T) was “as early as 2 or 3” and the IC50 (recombinant human SRPK2) was 1.11 µM. For the same molecule, the IC50 [6] was 0.003 to 0.09 µM, the “G6Pase and PEPCK gene expression” value (HepG2 cells) was “induced” and the “normal alternative splicing of Bcl-X and RON pre-mRNAs” value (Huh7 cells) was “alteration of normal alternative splicing”.

In the case of `CCN1/C(=C/C(C)=O)Sc2ccc(OC)cc21` [TG-003], the “preferential efficacy on Clk1 and Clk4 over Clk2 and Clk3” value [7] is listed as “at least 5 fold”.

In the case of `O=C(O)/C=C/c1cc(Br)c(Br)c(Br)c1Br` [TBCA, tetrabromocinnamic acid], the “alteration of SR protein phosphorylation” value [3] is reported as “did not induce the alteration”, the “CK2-mediated phosphorylation” value ([4]; 100 µM) is reported as “efficiently blocked” and the “changes in alternative splicing of selected genes (CK2 α′, ELL2, CPEB1, PRPSAP2, QRSL1)” value (293T cells [5]; 100 µM, 12 hours) is reported as “negligible effect”.

In the case of `Brc1c(Br)c(Br)c2[nH]nnc2c1Br` [TBB, 4,5,6,7-tetrabromobenzotriazole], the “alteration of SR protein phosphorylation” value [3] is reported as “did not induce the alteration”, the “CK2-mediated phosphorylation” value ([4]; 100 µM) is reported as “efficiently blocked” and the “changes in alternative splicing of selected genes (CK2 α′, ELL2, CPEB1, PRPSAP2, QRSL1)” value (293T cells [5]; 100 µM, 12 hours) is reported as “negligible effect”. For the same molecule, the “extra PCR product of QRSL1 (cryptic splicing, 3′ part of exon 11)” value (293T cells [5]; 100 µM, 12 hours) was “induced the appearance of an additional PCR product”.
